The values that follow are results of earlier work, collected in patent US6423302B1, “Use of octocrylene for solubilizing 2,4-bis{[4-(2-ethyl-hexyloxy)-2-hydroxy]-phenyl}-6-(4-methoxyphenyl)-1,3,5-triazine in cosmetic or dermatological light protection compositions” (Beiersdorf AG, priority 1999, dated 2002).

For the series the following is noted: prior-art statement.

The structures appear in SMILES notation.

Regarding `CCCCC(CC)COc1ccc(-c2nc(-c3ccc(OC)cc3)nc(-c3ccc(OCC(CC)CCCC)cc3O)n2)c(O)c1` (centres unmarked) [2,4-bis-{[4-(2-ethylhexyloxy)-2-hydroxy]phenyl}-6-(4-methoxyphenyl)-1,3,5-triazine], the “maximum amount of this filter that known solvents can dissolve” value (known solvents for this UV filter (lipids)) is not above 10 % by weight. Further, the solubility in lipids result (stated as main disadvantage) is “poor solubility in lipids”.
